Measured values: patent US20080207617A1, “Quinoline Derivatives and Quinazoline Derivatives Inhibiting Autophosphrylation of Flt3 and Medicinal Compositions Containing the Same” (KIRIN BEER KABUSHIKI KAISHA, priority 2002, published 2008)
Structures can show the parent of a compound that is named as a salt. Where two headings read alike, the source gives them in different places.

Tests used:
MOLM13 [1] = experiment: Cell growth inhibitory activity using MTT method (MOLM13); type: cell-based, human; conditions: MOLM13 cells
MV4-11 = experiment: Cell growth inhibitory test MV4-11 (WST-1); type: cell-based, human; conditions: MV4-11 cells, 3 days culture
Outline: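 MV4-11 leukemia cells (3×10^3/well, DMEM + 10% FCS) were cultured 3 days with compound in DMSO at 5% CO2. Growth read by WST-1 absorbance at 450 nm (ref 650 nm), normalized to untreated (100%) and cell-free (0%) wells; IC50 from multiple concentrations.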

MOLM13 [2] = experiment: Tumor growth inhibitory activities in nude mice xenograft model inoculated with human leukemia cells MOLM13; type: in vivo; conditions: Mus musculus, MOLM-13, po, read-out: TGIR (%) (measurement date); for inhibition in vivo at 50 mg/kg: 50 mg/kg orally once a day
Protocol: Pharmacological Test Example 5
Tumor Growth Inhibitory Activities in Nude Mice Xenograft Model Inoculated with Human Leukemia Cells
Human leukemia cells MOLM13 (subdivided from Hayashibara Biochemical Laboratories, Inc.) were subcutaneously transplanted into nude mice. […] The test compound suspended or dissolved in 0.5% methylcellulose was orally administered at a dose of 0.1 ml per 10 g body weight once a day for 9 days. For the control group, only vehicle was administered.
The tumor growth inhibition rate (TGIR) was calculated as follows:
The tumor growth inhibition rate (TGIR)=(1−TX/CX)×100
wherein CX represents the volume of tumor at day X for the control group when the tumor volume at the day of the start of the administration (day 1) was presumed to be 1; and TX represents the volume of tumor at day X for test compound administration groups.

SMILES | IC50 (MOLM13 [1]; Homo sapiens, MOLM-13, 72 h) [nM] | IC50 (MV4-11; Homo sapiens, MV4-11, 72 h) [nM] | also measured
COc1cc2nccc(Oc3ccc(NC(=O)NCCC(C)(C)C)cc3)c2cc1OC [Compound 1, 1-[4-(6,7-Dimethoxy-quinolin-4-yloxy)-phenyl]-3-(3,3-dimethyl-butyl)-urea hydrochloride] | 24.4 | < 1 | inhibition in vivo at 50 mg/kg (MOLM13 [2]; 264 h, day 11): 53.8%
COc1cc2nccc(Oc3c(Cl)cc(NC(=O)NCCC(C)(C)C)cc3Cl)c2cc1OC [Compound 6, 1-[3,5-Dichloro-4-(6,7-dimethoxy-quinolin--4-yloxy)-phenyl]-3-(3,3-dimethyl-butyl)-urea] | 12.4 | 8 | –
COc1cc2nccc(Oc3ccc(NC(=O)NCCC(C)(C)C)cc3Cl)c2cc1OC [Compound 8, 1-[3-Chloro-4-(6,7-dimethoxy-quinolin-4-yloxy)-phenyl]-3-(3,3-dimethyl-butyl)-urea] | 13.3 | 1 | –
COc1cc2nccc(Oc3ccc(NC(=O)NCCC(C)(C)C)cc3F)c2cc1OC [Compound 10, 1-[4-(6,7-Dimethoxy-quinolin-4-yloxy)-3-fluoro-phenyl]-3-(3,3-dimethyl-butyl)-urea hydrochloride] | 20.8 | < 1 | inhibition in vivo at 50 mg/kg (MOLM13 [2]; 240 h, day 10): 84.8%
COc1cc2c(Oc3ccc(NC(=O)NCCC(C)(C)C)c(F)c3)ccnc2cc1OCCN1CCOCC1 [Compound 41, 1-(3,3-Dimethyl-butyl)-3-{2-fluoro-4-[6-methoxy-7-(2-morpholin-4-yl-ethoxy)-quinolin-4-yloxy]-phenyl}-urea hydrochloride] | – | – | IC50 (MOLM13 [1]; 72 hr, hydrochloride): 34.8 nM; IC50 (MV4-11; hydrochloride): 25 nM
COc1cc2c(Oc3ccc(NC(=O)NCCC(C)(C)C)c(F)c3)ccnc2cc1OCCN1CCCCC1 [Compound 43, 1-(3,3-Dimethyl-butyl)-3-{2-fluoro-4-[6-methoxy-7-(2-piperidin-1-yl-ethoxy)-quinolin-4-yloxy]-phenyl}-urea hydrochloride] | 32.5 | 12 | inhibition in vivo at 50 mg/kg (MOLM13 [2]; 240 h, day 10): 98.1%
COc1cc2c(Oc3ccc(NC(=O)NCCC(C)(C)C)cc3F)ccnc2cc1OCCN1CCCCC1 [Compound 44, 1-(3,3-Dimethyl-butyl)-3-{3-fluoro-4-[6-methoxy-7-(2-piperidin-1-yl-ethoxy)-quinolin-4-yloxy]-phenyl}-urea] | 19.3 | 2 | inhibition in vivo at 12.5 mg/kg (MOLM13 [2]; 216 h, 12.5 mg/kg orally once a day, day 9): 99.6%; inhibition in vivo at 25 mg/kg (MOLM13 [2]; 216 h, 25 mg/kg orally once a day, day 9): 99.8%
